Source: PubChem BioAssay AID1949 (Southern Research Institute, 2009)
Converted amounts (≈) assume the structure as drawn. Results filed as inconclusive are left out. The source made the active and inactive calls. How the calls were made is not given here.

tested on: M. tuberculosis H37Rv growth inhibition; assay: Mycobacterium tuberculosis H37Rv growth inhibition, cell based, confirmatory dose response (AID 1949);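 further: bacteria grown 7 days with compound before Alamar blue readout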

SMILES | IC50
C=CCc1cc(Cl)ccc1OCCCNCCCC | 5.34 µg/mL (≈ 18.9 µM)
CC(C)(C)c1ccc(C(=O)NC(=S)NCc2cccnc2)cc1 | 2.47 µg/mL (≈ 7.54 µM)
CCOc1ccc(OCC(=O)Nc2cccc(F)c2)cc1 | < 0.1 µg/mL
N#Cc1cc2c(cc1C#N)OC(c1ccccc1)=NN2 | 16.4 µg/mL (≈ 63.1 µM)
N#CC1=C(SCC(=O)Nc2ccccc2[N+](=O)[O-])NC(=O)CC1c1ccc(F)cc1 (stereo not drawn) | 6.76 µg/mL (≈ 15.9 µM)
NC(N)=Nc1nc(-c2ccccc2)c2cc(F)ccc2n1 | 7.61 µg/mL (≈ 27.1 µM)
COC(=O)c1sccc1NC(=O)c1c(F)c(F)c(F)c(F)c1F | 0.21 µg/mL (≈ 0.598 µM)
O=C(O)c1ccc(-n2nnnc2SCc2ccccc2F)cc1 | > 50 µg/mL (inactive)
COC(=O)c1c(C)cc(=O)n2c1[nH]c1ccccc12 | 3.52 µg/mL (≈ 13.7 µM)
CCC(C)c1ccc(O)c(NC(=S)NC(=O)c2cccnc2)c1 (stereo not drawn) | < 0.1 µg/mL
O=C(Nc1nccs1)c1ccc(CSc2ccccc2)o1 | 3.09 µg/mL (≈ 9.77 µM)
CC(NC(=S)NC(=O)c1ccc(-c2ccccc2)cc1)c1ccccc1 (stereo not drawn) | 5.85 µg/mL (≈ 16.2 µM)
O=C(NCc1cccc(C(F)(F)F)c1)Nc1cccc(Cl)c1 | 5.93 µg/mL (≈ 18 µM)
COc1ccccc1C(=O)NNC(=S)NC(=O)c1cccs1 | 0.15 µg/mL (≈ 0.447 µM)
CC(C(=O)OCc1ccccc1)n1cnc2scc(-c3ccc(Br)cc3)c2c1=O (stereo not drawn) | 1.51 µg/mL (≈ 3.22 µM)
O=C(CCc1ccccc1)NC1C2CC3CC(C2)CC1C3 (stereo not drawn) | 3.08 µg/mL (≈ 10.9 µM)
COC(=O)COc1ccc(NC(=O)c2ccccc2I)cc1 | 0.62 µg/mL (≈ 1.51 µM)
Cc1cc(OCCCn2ccnc2)ccc1Cl | 1.94 µg/mL (≈ 7.74 µM)
S=C(NCc1ccc(Cl)cc1)N1CCN(C/C=C/c2ccccc2)CC1 | 1.99 µg/mL (≈ 5.16 µM)
Cc1ccc(NC(=O)C2C3CC/C=C\CC/C=C/CCC32)cc1C (stereo not drawn) | 23.6 µg/mL (≈ 72.8 µM)
Cc1cc(O)ccc1N1C(=O)c2cccc3c([N+](=O)[O-])ccc(c23)C1=O | 21.3 µg/mL (≈ 61.1 µM)
O=[N+]([O-])c1ccc(NCCNc2nc3ccccc3nc2N2CCOCC2)cc1 | 1.64 µg/mL (≈ 4.16 µM)
COC(=O)Cc1c(C)c2ccc(OCC(=O)Nc3cc(C)cc(C)c3)cc2oc1=O | 0.2 µg/mL (≈ 0.488 µM)
CCCCOc1ccc(C2c3c(oc4ccc(Br)cc4c3=O)C(=O)N2CCCN2CCOCC2)cc1 (stereo not drawn) | 3.77 µg/mL (≈ 6.79 µM)

SMILES | IC50
C#CCOc1c(Cl)cc(/C=C/[N+](=O)[O-])cc1Cl | > 50 µg/mL (inactive)
CCCC(=O)NC(=S)Nc1ccc(N2CCN(C(=O)c3cccs3)CC2)c(Cl)c1 | 0.61 µg/mL (≈ 1.35 µM)
COCCCN1C(=O)c2cccc3c([N+](=O)[O-])ccc(c23)C1=O | 15.3 µg/mL (≈ 48.7 µM)
Cc1ccc(C(=O)NC(=S)Nc2cccc(NC(=O)c3cccs3)c2)c(C)c1 | 6.96 µg/mL (≈ 17 µM)
O=C(CSc1ccc(C(F)(F)F)cc1[N+](=O)[O-])OC1CCCCC1 | 1.26 µg/mL (≈ 3.47 µM)
O=C(CSc1ccc(Br)cc1)Nc1ccccc1F | 1.6 µg/mL (≈ 4.7 µM)
CCC(=O)c1ccc(OCC(O)CN2CCN(c3ccc(C)cc3C)CC2)cc1 (stereo not drawn) | > 50 µg/mL (inactive)
CCCc1ccc(OC(=O)c2cc3ccccc3oc2=O)cc1 | 22.4 µg/mL (≈ 72.5 µM)
CCc1cc2c(=O)c(-c3ccc4c(c3)OCCO4)coc2cc1OCC(=O)OC(C)C | 5.83 µg/mL (≈ 13.7 µM)
Cc1c(C(=O)c2ccccc2)sc2nc(-c3ccccc3)nc(N)c12 | 7.76 µg/mL (≈ 22.5 µM)
CCc1ccccc1NC(=O)c1cc2cc([N+](=O)[O-])cc(OC)c2oc1=O | > 50 µg/mL (inactive)
O=C(Nc1ccccc1)Nc1ccc(S(=O)(=O)Nc2cccc(C(F)(F)F)c2)cc1 | 2.28 µg/mL (≈ 5.24 µM)
CCOC(=O)c1c(NC(=S)NC(C)c2ccncc2)sc2c1CCCCCC2 (stereo not drawn) | 32.8 µg/mL (≈ 78.6 µM)
O=[N+]([O-])c1ccc(N2CCN(CCO)CC2)cc1NCCOc1cccc2ccccc12 | 2.82 µg/mL (≈ 6.46 µM)
O=C1C(=O)N(Cc2ccccc2Cl)c2ccc(Cl)cc21 | 9.36 µg/mL (≈ 30.6 µM)
O=C(CC1(O)C(=O)N(CCc2ccccc2)c2ccc(Cl)cc21)c1cccnc1 (stereo not drawn) | 6.05 µg/mL (≈ 14.9 µM)
CCOC(=O)Cn1nnc(-c2ccc(OCc3ccccc3F)cc2)n1 | 0.28 µg/mL (≈ 0.786 µM)
CCc1ccc(OCC(=O)NC2CCCCC2)c(Br)c1 | > 50 µg/mL (inactive)
O=C(Nc1ccc(Cl)c(Br)c1)c1ccc(Cl)cc1Cl | 4.23 µg/mL (≈ 11.1 µM)
COc1ccc(-c2csc(-c3ccc(OC)c(OC)c3)n2)cc1C | < 0.1 µg/mL
Cc1cc(C(C)(C)C)ccc1OCCCCn1ccnc1 | 1.4 µg/mL (≈ 4.89 µM)
COc1cccc(N2CCN(C(=O)Nc3ccc(Cl)c(Cl)c3)CC2)c1 | 9.41 µg/mL (≈ 24.7 µM)
O=C(Nc1ccccc1Cl)c1cc([N+](=O)[O-])ccc1O | 7.53 µg/mL (≈ 25.7 µM)
O=C(Nc1ccc(F)c(Cl)c1)C12CC3CCC(CC(C3)C1)C2 | < 0.1 µg/mL

SMILES | IC50
CCCn1nnc(NC(=O)COc2ccc(C3CCCCC3)cc2)n1 | 0.64 µg/mL (≈ 1.86 µM)
Cc1cccc(NC(=S)NC(=O)CC23CC4CC(CC(C4)C2)C3)c1 | 2.89 µg/mL (≈ 8.44 µM)
CC(NC(=O)NNC(=O)c1ccncc1)(C(F)(F)F)C(F)(F)F | 0.18 µg/mL (≈ 0.523 µM)
CCC(C)c1ccc(O)c(NC(=S)NC(=O)c2cncc(Br)c2)c1 (stereo not drawn) | < 0.1 µg/mL
CCOC(=O)c1ccc(NC(=S)NCCN2CCc3ccccc3C2)cc1 | 31 µg/mL (≈ 80.8 µM)
CCCn1c(CNc2ccccc2O)nc2ccccc21 | 0.34 µg/mL (≈ 1.21 µM)
CCCCCn1c(NCc2ccc(N(C)C)cc2)nc2ccccc21 | 2.9 µg/mL (≈ 8.62 µM)
Cc1ccc(Cl)c(OCC(O)Cn2cnc3cc(C)c(C)cc32)c1 (stereo not drawn) | 8.12 µg/mL (≈ 23.5 µM)
CCc1nc2sc(C(=O)c3ccccc3)c(N)c2cc1C | > 50 µg/mL (inactive)
O=C(CSc1ccccc1)Nc1ccc(-c2nc3ccccc3c(=O)o2)cc1 | 0.47 µg/mL (≈ 1.21 µM)
O=C(CCC(=O)OCc1cccc(C(=O)Oc2ccccc2)c1)Nc1cccc2ccccc12 | 12.6 µg/mL (≈ 27.8 µM)
COc1ccc(C(=O)CCN2CCCC(C)C2)cc1 (stereo not drawn) | 35 µg/mL (≈ 134 µM)
CCOC(=O)COc1ccc2cc(-c3nc4ccccc4s3)c(=O)oc2c1 | 1.35 µg/mL (≈ 3.54 µM)
CSc1nc2nc3c(c(=O)n2[nH]1)CCCC3 | 2.96 µg/mL (≈ 12.5 µM)
CSc1nc(C)cc(OCC(=O)Nc2ccc(Cl)cc2)n1 | 6.69 µg/mL (≈ 20.7 µM)
Cn1nc([N+](=O)[O-])nc1Oc1ccc(Br)cc1 | 7.92 µg/mL (≈ 26.5 µM)
CCCc1cc(C(=O)OC)c(NC(=O)c2cc3ccccc3oc2=O)s1 | 39.4 µg/mL (≈ 106 µM)
Cc1ccc2nc(-c3ccncc3)cc(C(=O)Nc3ccncc3)c2c1 | > 50 µg/mL (inactive)
COc1cc2c(cc1OC)C(c1ccc(-c3ccc(Cl)c(Cl)c3)o1)=NCC2 | 6.98 µg/mL (≈ 17.4 µM)
O=C(O)c1ccc(C2Nc3ccc([N+](=O)[O-])cc3C3c4ccccc4CC23)cc1 (stereo not drawn) | > 50 µg/mL (inactive)
CCOCC(=O)Nc1sc2c(c1C(=O)OCC)CCCC2 | > 50 µg/mL (inactive)
CCCCNCCCCOc1ccc2ccccc2c1Br | 1.63 µg/mL (≈ 4.65 µM)
O=C(Nc1cccc(C(F)(F)F)c1)C1CCN(C(=O)c2ccc(-c3ccccc3)cc2)CC1 | 5.84 µg/mL (≈ 12.9 µM)
O=C(c1ccc2ccccc2c1)N(C1CCCCC1)C1CCCCC1 | 43 µg/mL (≈ 128 µM)

SMILES | IC50
CCN(c1ccccc1)S(=O)(=O)c1ccc(NC(=O)Nc2ccc(Cl)cc2)cc1 | 5.77 µg/mL (≈ 13.4 µM)
O=C(NCc1ccc2c(c1)OCO2)c1cnn2c1NC(c1cccs1)CC2C(F)(F)F (stereo not drawn) | 0.13 µg/mL (≈ 0.289 µM)
CCn1c2ccccc2c2cc(NC(=O)C34CCC(C)(C(=O)C3)C4(C)C)ccc21 (stereo not drawn) | 11.5 µg/mL (≈ 29.7 µM)
Cc1cc(Nc2cccc(Cl)c2)nc(NCc2ccccc2)n1 | 1.39 µg/mL (≈ 4.28 µM)
COC(=O)C(C)Oc1ccc2c(=O)c(Oc3ccc(OC)cc3)coc2c1 (stereo not drawn) | 5.99 µg/mL (≈ 16.2 µM)
O=C(Nc1ccc(-c2nc3ccccc3c(=O)o2)cc1)c1ccccc1I | 0.37 µg/mL (≈ 0.79 µM)
COc1ccc2nc(C)c3cc(C)oc3c2c1 | 1.82 µg/mL (≈ 8.01 µM)
CCC(C)c1ccc(OCC(=O)NC2C3CC4CC(C3)CC2C4)cc1 (stereo not drawn) | 7.97 µg/mL (≈ 23.3 µM)
O=C(CCN1C(=O)c2ccccc2C1=O)Oc1cccc2cccnc12 | 2.78 µg/mL (≈ 8.03 µM)
CN1CCN(c2cc(-c3ccccc3)nc3c(C(F)(F)F)cccc23)CC1 | 1.88 µg/mL (≈ 5.06 µM)
CC(=O)Nc1ccc2cccc(O)c2n1 | 0.96 µg/mL (≈ 4.75 µM)
O=C(CCNc1cccc(Cl)c1)c1ccc([N+](=O)[O-])cc1 | 2.87 µg/mL (≈ 9.42 µM)
O=C1C=C(c2ccccc2)C(=O)c2ccccc21 | 2.68 µg/mL (≈ 11.4 µM)
O=Cc1ccc(Sc2nnc(-c3ccccc3)o2)o1 | 3.39 µg/mL (≈ 12.5 µM)
O=C(OCc1nnc(-c2ccccc2)o1)c1cc(-c2cccs2)nc2ccccc12 | 3.03 µg/mL (≈ 7.33 µM)
CC(C)Oc1ccc(Nc2ncnc3ccc(Br)cc23)cc1 | 2.5 µg/mL (≈ 6.98 µM)
CC1=Nc2c(ccc3cccnc23)C1(C)C | 0.19 µg/mL (≈ 0.904 µM)
COc1ccc(-c2csc(Nc3ccc(C)cn3)n2)cc1 | 7.18 µg/mL (≈ 24.1 µM)
O=C(Nc1cccc(C(F)(F)F)c1)Nc1cc(F)c(F)cc1Cl | 19.5 µg/mL (≈ 55.5 µM)
Cc1c(Cl)ccc2c(=O)c(C(=O)O)c[nH]c12 | 29.6 µg/mL (≈ 125 µM)
CCCCOc1ccc(S(=O)(=O)Nc2ccc(I)cc2)cc1 | 2.84 µg/mL (≈ 6.58 µM)
O=C1c2cccc3cccc(c23)C(=O)N1c1ccc2[nH]c(=O)[nH]c2c1 | 33 µg/mL (≈ 100 µM)
Cc1ccc2oc(-c3cc(NC(=O)Cc4ccccc4)ccc3Cl)nc2c1 | < 0.1 µg/mL
COc1cc(NC(=O)C(Cl)Cl)c(OC)cc1Cl | 2.68 µg/mL (≈ 8.98 µM)

SMILES | IC50
O=C(CCc1ccccc1)NC(=S)Nc1ccc(N2CCCCC2)cc1 | 0.27 µg/mL (≈ 0.735 µM)
Cc1cc(C)c(C(=O)/C=C/c2cccc([N+](=O)[O-])c2)cc1C | 0.36 µg/mL (≈ 1.22 µM)
Cc1ccc(Cl)cc1N(CC(=O)Nc1ccc(I)cc1)S(C)(=O)=O | 4.66 µg/mL (≈ 9.73 µM)
CCOC(=O)CSc1cc(C)nc2ccc(C)cc12 | 1.66 µg/mL (≈ 6.03 µM)
O=C(NC1CCCCC1)N1CCN(Cc2ccc3c(c2)OCO3)CC1 | 0.39 µg/mL (≈ 1.13 µM)
COC(=O)c1c(NC(=O)c2cc3ccccc3oc2=O)sc2c1CCC2 | 4.29 µg/mL (≈ 11.6 µM)
Brc1ccc2ncnc(Nc3ccc(N4CCCC4)cc3)c2c1 | < 0.1 µg/mL
CCOC(=O)c1c(NC(C)=O)sc2c(OCC(O)CN(CC)CC)c(Br)ccc12 (stereo not drawn) | 4.61 µg/mL (≈ 9.46 µM)
CCOC(=O)c1sc(NC(=O)NC2CCCCC2)cc1C | 0.75 µg/mL (≈ 2.42 µM)
O=C1c2cccc3cc([N+](=O)[O-])cc(c23)C(=O)N1CCO | > 50 µg/mL (inactive)
Cc1cc(Cl)ccc1NC(=O)CCc1ccc(S(=O)(=O)NCC(C)C)cc1 | 0.53 µg/mL (≈ 1.3 µM)
O=C(Nc1cccnc1)c1ccc2c(c1)C1C3CCC(C3)C1C(c1ccccc1)N2 (stereo not drawn) | 37.5 µg/mL (≈ 94.8 µM)
CNCc1ccc(OCc2ccc(Cl)cc2Cl)cc1 | 4.85 µg/mL (≈ 16.4 µM)
Cc1ccc(-c2nn(-c3ccccc3)cc2CNCc2ccccc2)cc1 | 1.11 µg/mL (≈ 3.14 µM)
CCOC(=O)c1c(CSc2ccccc2)n(-c2ccccc2)c2ccc(O)c(CN(C)C)c12 | 1.4 µg/mL (≈ 3.04 µM)
Cn1c(Sc2cnn(-c3ccccc3)c(=O)c2Br)nnc1-c1ccccc1 | 2.81 µg/mL (≈ 6.38 µM)
CCOc1ccc(OCc2ccc(C(=O)Nc3cccc(C)n3)o2)cc1 | 7.11 µg/mL (≈ 20.2 µM)
CC(C(=O)Oc1cccc2cccnc12)N1C(=O)c2ccccc2C1=O (stereo not drawn) | 4.4 µg/mL (≈ 12.7 µM)
COc1ccc(Nc2nc(-c3ccccn3)cs2)c(OC)c1 | < 0.1 µg/mL
CCCC(=O)N1CCN(c2ccc(NC(=O)c3ccc(-c4ccc(Cl)cc4)o3)cc2Cl)CC1 | 1.4 µg/mL (≈ 2.88 µM)
O=[N+]([O-])/C=C/c1cccn1-c1ccc(Cl)cc1 | 9.66 µg/mL (≈ 38.8 µM)
O=C(NCCC1=CCCCC1)C12CC3CC(CC(C3)C1)C2 | 11.2 µg/mL (≈ 39 µM)
